Several values for one entry are separate records, joined by “and”; a condition that tells them apart may be missing. Identical values can stand only once. Entries after “also recorded” stand apart in the source; their conditions may differ.
Assays:
[1] = tested on: protein mannosyl transferases (PMTs), crude enzyme; experiment: LUV-based (UPV) PMT activity assay: transfer of [3H]-mannose from Dol-P-Man to acceptor peptide; format: biochemical, S. cervisiae; settings: for inhibition of the PMT enzyme by divalent cation chelator: LUV assay conditions (FIG. 7B)
Description: The assays using the UPV method contained 20 mM Tris-HCl, pH 7.5, 10 mM MgCl2, 2.5 mM of the peptide, YNPTSV, 1.5 μl Dol-P-[^3H]-Man (approximately 0.9×10^6 cpm) “solubilized” in 100 μg POPC LUV's and 8 μg of crude enzyme (see Example 2) in a final volume of 40 μl. The assay samples were incubated for 2-30 minutes (varied per individual experiments) at 20° C. and at the end of the incubation the reaction was stopped by the addition of 10 μl 50 mM CuSO4 or 1 ml 0.1% TFA.
Assay reaction products were isolated on C18 cartridges (1 cc/100 mg Bond Elut) obtained from Varian [Homa et al. Prot. Exp. Purif., 6:141-48; 1995]. Isolation of reaction product by solvent extraction was carried out as described by Strahl-Bolsinger and Tanner [Eur. J. Biochem., 196:185-90; 1991].
As part of the characterization of the UPV PMT assay, other parameters such as the influence of detergents and ion dependence were also investigated. PMT assays (using LUVs as produced by the method in Example 3) were conducted by the methods of Example 5. Assays were performed at two concentrations of enzymes (5 and 10 μl). Buffers containing only CHAPS or CHAPS+50% glycerol were substituted for the standard Extraction Buffer used to solubilize the ezyme (see FIG. 6A). The effect of increased detergent concentration was investigated by the addition of increasing amounts of Extraction Buffer (see FIG. 6B).
Experiments were also conducted (as described immediately above) to determine whether PMTs are ion dependent. The control assay (10 mM Mg) contained LUVs made in buffer containing 10 mM MgCl2. All other assays contained LUVs prepared in buffer without MgCl2. […] Enzymol. Relat. Areas Mol. Biol., 52:23-175; 1981].

[2] = tested on: protein mannosyl transferases (PMTs); settings: detergent based assay; read-out: Km previously determined; cited from earlier work
acceptor peptide YNPTSV = tested on: T1, acceptor peptide YNPTSV
T1 sequence: YNPTSV

O=C(O)CN(CCN(CC(=O)O)CC(=O)O)CC(=O)O [EDTA]
inhibition of the PMT enzyme by divalent cation chelator [1]: does not inhibit the enzyme; also recorded: appears not to inhibit the enzyme

O=C(O)CN(CCOCCOCCN(CC(=O)O)CC(=O)O)CC(=O)O [EGTA]
inhibition of the PMT enzyme by divalent cation chelator [1]: equally ineffective

c1cnc2c(c1)ccc1cccnc12 [orthophenanthroline]
inhibition of the PMT enzyme by divalent cation chelator [1]: equally ineffective

YNPTSV (synthesized acceptor peptide) [standard synthetic acceptor peptide containing an acceptor site for PMTs]
Vmax ([1]; Dol-P-Man in POPC LUVs, crude enzyme preparation): approximately 7.25 pmol min.^−1 mg protein^−1 | Km ([1]; Dol-P-Man in POPC LUVs, crude enzyme preparation (yeast microsomal lysate), read-out: apparent Km for the acceptor peptide): 1500 µM and ~1000 µM | Km [2]: 3300 µM

protein mannosyl transferases (PMTs), crude detergent extract of S. cervisiae (strain BY4743) microsomal membranes
Vmax (LUV-based PMT enzyme activity assay, crude enzyme) (acceptor peptide YNPTSV): Vmax was determined to be approximately 7.25 pmol min.^-1 mg protein^-1 | apparent Km (LUV-based PMT enzyme activity assay, crude enzyme) (acceptor peptide YNPTSV): the apparent Km (using crude enzyme preparation) was determined to be approximately 1 mM | apparent Km (LUV-based PMT enzyme activity assay, crude yeast microsomal lysate) (acceptor peptide YNPTSV): an apparent Km of 1.5 mM, for the acceptor peptide YNPTSV

From patent US20030017520A1, “High-efficiency assay for protein mannosyl transferases” (priority 2001, published 2003)
